Measurements as given in patent US10654867B2 (Genentech, Inc., priority 2016, dated 2020).

molecular target: T1, estrogen receptor alpha (ESR1) in MCF7 breast cancer cells (Homo sapiens, UniProt P03372); experiment: Breast Cancer Cell ERa High Content Fluorescence Imaging Degradation Assay (ER-alpha MCF7 HCS); format: cell-based; design: endogenous in cells; host or cells: MCF7 breast cancer cells; settings: 4 hours, plateau of the maximal effect, DMSO and fulvestrant define 0% and 100% change in ESR1, Table 1a
T1 sequence (P03372 1-595): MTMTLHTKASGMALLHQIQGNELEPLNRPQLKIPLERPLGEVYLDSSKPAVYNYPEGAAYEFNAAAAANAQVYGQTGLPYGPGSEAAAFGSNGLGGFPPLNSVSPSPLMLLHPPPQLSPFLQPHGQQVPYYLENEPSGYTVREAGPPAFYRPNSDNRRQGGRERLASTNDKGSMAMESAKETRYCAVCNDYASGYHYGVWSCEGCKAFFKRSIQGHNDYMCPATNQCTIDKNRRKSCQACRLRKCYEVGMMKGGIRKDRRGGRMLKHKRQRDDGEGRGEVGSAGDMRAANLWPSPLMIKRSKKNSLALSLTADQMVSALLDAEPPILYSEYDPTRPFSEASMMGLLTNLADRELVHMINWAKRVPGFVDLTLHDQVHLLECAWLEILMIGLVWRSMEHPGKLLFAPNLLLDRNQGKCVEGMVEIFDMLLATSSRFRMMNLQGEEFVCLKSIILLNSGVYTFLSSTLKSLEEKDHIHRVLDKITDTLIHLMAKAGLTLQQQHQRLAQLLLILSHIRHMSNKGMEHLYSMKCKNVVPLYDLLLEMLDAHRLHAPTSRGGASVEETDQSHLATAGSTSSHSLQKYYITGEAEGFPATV
Experimental: All of the exemplary Formula I, II, and III compounds in Tables 1a and 1b were made and characterized by LCMS [M+H]^+ (liquid chromatography mass spectroscopy) with detection of parent ion. All of the exemplary Formula I, II, and III compounds in Tables 1a and 1b were tested for binding to ERa (Estrogen Receptor alpha) and biological activity according to the assays, protocols, and procedures of Examples 901-907. ER-alpha MCF7 HCS Sinf (%) values in Tables 1a and 1b were measured by the Breast Cancer Cell ERa High Content Fluorescence Imaging Degradation Assay of Example 901. ER-alpha MCF7 HCS EC50 (μM) values in Tables 1a and 1b were measured by the in vitro cell proliferation assays described in Examples 902 and 903. The rat uterine wet weight assays of Examples 906 and 907 allow rapid determination of compound antagonist activity in an ER responsive tissue (immature rat uterus) while competing against the native ER ligand estradiol, i.e. antagonist mode (Ashby, J.; et al (1997) Regulatory toxicology and pharmacology: RTP, 25 (3):226-31). Exemplary Formula I, II, and III compounds in Tables 1a and 1b have the following structures, corresponding names (ChemBioDraw, Version 12.0.2, CambridgeSoft Corp., Cambridge Mass.), and biological activity. Where more than one name is associated with a Formula I, II, and III compound or intermediate, the chemical structure shall define the compound.
MCF7 breast cancer cells were seeded on day 1 at a density of 10,000 cells per well in 384 well poly-lysine coated tissue culture plate (Greiner # T-3101-4), in 50 μL/well RPMI (phenol red free), 10% FBS (Charcoal stripped), containing L-glutamine. On day 2, compounds were prepared at 2 compound source concentrations: 100 μM and 1 μM (ultimately to give 2 overlapping titration curves), in a Labcyte low dead volume plate, 10 μL/well, and 10 μL of DMSO in designated wells for backfill, and 5 μM Fulvestrant (control compound) in designated wells. Compounds and controls were dispensed using a Labcyte Echo acoustic dispenser to dispense compounds with a predefined serial dilution (1.8×, 10 point, in duplicate) and appropriate backfill and control compounds (final total volume transferred was 417.5 nL and compound dispense volume ranges from 2.5 nL to 417.5 nL; 0.84% DMSO (v/v) final), ultimately producing a concentration range from 0.05 nM to 835 nM. Cell plates were incubated at 37° C., for 4 hours. Fixation and permeabilization were carried out using a Biotek EL406 plate washer and dispenser as follows. Cells were fixed by addition of 15 μL of 16% paraformaldehyde (Electron Microscopy Sciences #15710-S) directly to the 50 μL cell culture medium in each well using the peristaltic pump 5 μL cassette on a Biotek EL406 (final concentration of formaldehyde was 3.7% w/v). Samples were incubated 30 minutes. Well contents was aspirated and 50 μL/well of Phosphate Buffered Saline (PBS) containing 0.5% w/v bovine serum albumen, 0.5% v/v Triton X-100 (Antibody Dilution Buffer) was added to each well. Samples were incubated for 30 minutes. Well contents were aspirated and washed 3 times with 100 μL/well of PBS. Immunofluorescence staining of estrogen receptor alpha (ESR1) was carried out using a Biotek EL406 plate washer and dispenser as follows. The well supernatant was aspirated from the wells and 25 μL/well of anti-ESR1 mAb (F10) (Santa Cruz sc-8002) diluted 1:1000 in Antibody Dilution Buffer was dispensed. Samples were incubated for 2 hours at room temperature. Samples were washed 4 times with 100 μL/well of PBS. 25 uL (microliters)/well of secondary antibody solution (Alexafluor 488 conjugate anti-mouse IgG (LifeTechnologies # A21202) diluted 1:1000 and Hoechst 33342 1 μg/ml diluted in Antibody Dilution Buffer) were dispensed into each well. Samples were incubated for 2 hours at room temperature. Samples were washed 3 times with 100 μL/well of PBS using a Biotek EL406. Quantitative fluorescence imaging of ESR1 was carried out using a Cellomics Arrayscan V (Thermo). […]

ER-alpha MCF7HCS Sinf [%]	SMILES
−75	C[C@H]1CCN(CC(C)(C)F)[C@@H](c2c(F)cc(OCCN3CC(CF)C3)cc2F)c2[nH]c3ccccc3c21 [Example 124, (1S,5S)-1-(2,6-difluoro-4-(2-(3-(fluoromethyl)azetidin-1-yl)ethoxy)phenyl)-2-(2-fluoro-2-methylpropyl)-5-methyl-1,2,3,4,5,10-hexahydroazepino[3,4-b]indole]
−101	C[C@H]1CCN(CC(C)(C)F)[C@H](c2c(F)cc(OCCN3CC(CF)C3)cc2F)c2[nH]c3ccccc3c21 [Example 125, (1R,5S)-1-(2,6-difluoro-4-(2-(3-(fluoromethyl)azetidin-1-yl)ethoxy)phenyl)-2-(2-fluoro-2-methylpropyl)-5-methyl-1,2,3,4,5,10-hexahydroazepino[3,4-b]indole]
−50	C[C@@H]1CCN(CC(C)(C)F)[C@@H](c2c(F)cc(OCCN3CC(CF)C3)cc2F)c2[nH]c3ccccc3c21 [Example 126, (1S,5R)-1-(2,6-difluoro-4-(2-(3-(fluoromethyl)azetidin-1-yl)ethoxy)phenyl)-2-(2-fluoro-2-methylpropyl)-5-methyl-1,2,3,4,5,10-hexahydroazepino[3,4-b]indole]
−100	C[C@@H]1Cn2c(cc3ccccc32)[C@@H](c2c(F)cc(NC3CN(CCCF)C3)cc2F)N1CC(C)(C)F [Example 127, N-(3,5-Difluoro-4-((1R,3R)-2-(2-fluoro-2-methylpropyl)-3-methyl-1,2,3,4-tetrahydropyrazino[1,2-a]indol-1-yl)phenyl)-1-(3-fluoropropyl)azetidin-3-amine]
−101	C[C@@H]1Cc2sc3ccccc3c2[C@@H](c2ccc(OCCN3CC(CF)C3)cc2)N1CC(C)(C)F [Example 128, (1R,3R)-2-(2-fluoro-2-methylpropyl)-1-(4-(2-(3-(fluoromethyl)azetidin-1-yl)ethoxy)phenyl)-3-methyl-1,2,3,4-tetrahydrobenzo[4,5]thieno[3,2-c]pyridine]

Second part, the molecule before the results:

SMILES	ER-alpha MCF7HCS Sinf [%]
C[C@@H]1Cn2c(cc3ccccc32)[C@@H](c2c(F)cc(OC3CN(CCCF)C3)cc2F)N1CC(C)(C)F [Example 110, (1R,3R)-1-(2,6-Difluoro-4-((1-(3-fluoropropyl)azetidin-3-yl)oxy)phenyl)-2-(2-fluoro-2-methylpropyl)-3-methyl-1,2,3,4-tetrahydropyrazino[1,2-a]indole]	−100
C[C@@H]1Cc2c([nH]c3ccccc23)[C@H]2c3c(F)cc(OCCN4CC(CF)C4)cc3OCC(F)(F)CN21 [Example 112, (10R,16bR)-1,7,7-Trifluoro-3-(2-(3-(fluoromethyl)azetidin-1-yl)ethoxy)-10-methyl-7,8,10,11,16,16b-hexahydro-6H-benzo[2′,3′][1,5]oxazocino[5′,4′:1,2]pyrido[3,4-b]indole]	−50
C[C@@H]1Cc2c([nH]c3ccccc23)[C@]2(CCc3cc(OCCN4CC(CF)C4)ccc32)N1CC(C)(C)F [Example 113, (1R,3′R)-2′-(2-fluoro-2-methylpropyl)-5-(2-(3-(fluoromethyl)azetidin-1-yl)ethoxy)-3′-methyl-2,2′,3,3′,4′,9′-hexahydrospiro[indene-1,1′-pyrido[3,4-b]indole]]	−94.7
C[C@@H]1Cc2c([nH]c3ccccc23)[C@]2(CCc3cc(OCCN4CC(CF)C4)ccc32)N1CC(F)(F)F [Example 114, (1R,3′R)-5-(2-(3-(fluoromethyl)azetidin-1-yl)ethoxy)-3′-methyl-2′-(2,2,2-trifluoroethyl)-2,2′,3,3′,4′,9′-hexahydrospiro [indene-1,1′-pyrido [3,4-b]indole]]	−96.6
C[C@@H]1Cc2c([nH]c3ccccc23)[C@@]2(CCc3cc(OCCN4CC(CF)C4)ccc32)N1CC(F)(F)F [Example 115, (1S,3′R)-5-(2-(3-(fluoromethyl)azetidin-1-yl)ethoxy)-3′-methyl-2′-(2,2,2-trifluoroethyl)-2,2′,3,3′,4′,9′-hexahydrospiro [indene-1,1′-pyrido [3,4-b]indole]]	−98
C[C@@H]1CCc2c([nH]c3ccccc23)[C@@H](c2c(F)cc(OCCN3CC(CF)C3)cc2F)N1CC(C)(C)F [Example 116, (1R,3R)-1-(2,6-difluoro-4-(2-(3-(fluoromethyl)azetidin-1-yl)ethoxy)phenyl)-2-(2-fluoro-2-methylpropyl)-3-methyl-1,2,3,4,5,10-hexahydroazepino[3,4-b]indole]	−93.5
C[C@@](F)(CO)CN1CCCc2c([nH]c3ccccc23)[C@H]1c1c(F)cc(OCCN2CC(CF)C2)cc1F [Example 117, (S)-3-((R)-1-(2,6-difluoro-4-(2-(3-(fluoromethyl)azetidin-1-yl)ethoxy)phenyl)-3,4,5,10-tetrahydroazepino[3,4-b]indol-2(1H)-yl)-2-fluoro-2-methylpropan-1-ol]	−93.8
C[C@](F)(CO)CN1CCCc2c([nH]c3ccccc23)[C@H]1c1c(F)cc(OCCN2CC(CF)C2)cc1F [Example 118, (R)-3-((R)-1-(2,6-difluoro-4-(2-(3-(fluoromethyl)azetidin-1-yl)ethoxy)phenyl)-3,4,5,10-tetrahydroazepino[3,4-b]indol-2(1H)-yl)-2-fluoro-2-methylpropan-1-ol]	−95.9
CC(F)(CO)CN1CCCc2c([nH]c3ccccc23)[C@@H]1c1c(F)cc(OCCN2CC(CF)C2)cc1F (stereo partly drawn) [Example 119, 3-((S)-1-(2,6-difluoro-4-(2-(3-(fluoromethyl)azetidin-1-yl)ethoxy)phenyl)-3,4,5,10-tetrahydroazepino[3,4-b]indol-2(1H)-yl)-2-fluoro-2-methylpropan-1-ol]	−95.6
C[C@@H]1Cn2c(cc3ccccc32)[C@@H](c2c(F)cc(OC3CN(CCCF)C3)cc2F)N1CC(C)(F)CO (stereo partly drawn) [Example 122, 3-((1R,3R)-1-(2,6-Difluoro-4-((1-(3-fluoropropyl)azetidin-3-yl)oxy)phenyl)-3-methyl-3,4-dihydropyrazino[1,2-a]indol-2(1H)-yl)-2-fluoro-2-methylpropan-1-ol]	−97
C[C@@H]1CCN(CC(C)(C)F)[C@H](c2c(F)cc(OCCN3CC(CF)C3)cc2F)c2[nH]c3ccccc3c21 [Example 123, (1R,5R)-1-(2,6-difluoro-4-(2-(3-(fluoromethyl)azetidin-1-yl)ethoxy)phenyl)-2-(2-fluoro-2-methylpropyl)-5-methyl-1,2,3,4,5,10-hexahydroazepino[3,4-b]indole]	−96.9
